Patent US6753335B2, “Quinolinyl-piperidin-4-ylidene-methyl-benzamide derivatives for the treatment of pain” (AstraZeneca AB, priority 2000, dated 2004)

Experiments:
Format in all cases: biochemical
[1] = biological target: T1, delta receptors, mouse brain (Mus musculus, UniProt P32300); experiment: GTP[γ]35S binding functional assay, homogenised mouse brain membranes
T1 construct: from tissue; host or cells: mouse brain homogenate
Experimental: (§1) B. Mouse and rat brains were weighed and rinsed in ice-cold PBS (containing 2.5 mM EDTA, pH 7.4). The brains were homogenized with a polytron for 15 sec (mouse) or 30 sec (rat) in ice-cold lysis buffer (50mM Tris, pH 7.0, 2.5mM EDTA, with phenylmethylsulfonyl fluoride added just prior use to […] from a 0.5 M stock in DMSO:ethanol).
(§2) The agonist activity of the compounds is measured by determining the degree to which the compounds receptor complex activates the binding of GTP to G-proteins to which the receptors are coupled. In the GTP binding assay, GTP[γ]^35S is combined with test compounds and membranes from HEK-293S cells expressing the cloned human opioid receptors or from homogenised rat and mouse brain. Agonists stimulate GTP[γ]^35S binding in these membranes. The EC50 and Emax values of compounds are determined from dose-response curves. Right shifts of the dose response curve by the delta antagonist naltindole are performed to verify that agonist activity is mediated through delta receptors.

[2] = biological target: T2, delta receptors, rat brain (Rattus norvegicus, UniProt P33533); experiment: GTP[γ]35S binding functional assay, homogenised rat brain membranes
T2 construct: from tissue; host or cells: rat brain homogenate
T2 sequence (P33533 whole entry): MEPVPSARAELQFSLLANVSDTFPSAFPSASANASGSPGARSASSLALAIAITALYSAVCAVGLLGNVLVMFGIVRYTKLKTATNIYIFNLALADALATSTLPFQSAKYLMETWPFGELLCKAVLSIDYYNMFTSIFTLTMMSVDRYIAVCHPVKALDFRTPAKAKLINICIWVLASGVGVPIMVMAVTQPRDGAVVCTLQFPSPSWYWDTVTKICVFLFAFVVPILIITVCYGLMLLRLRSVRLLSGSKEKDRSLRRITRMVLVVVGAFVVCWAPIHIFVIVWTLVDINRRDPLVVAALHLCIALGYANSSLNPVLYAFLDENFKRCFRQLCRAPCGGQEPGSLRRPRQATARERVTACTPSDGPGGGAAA
Experimental: as §1, §2

cloned human δ receptor = biological target: T3, cloned human δ receptor (Homo sapiens, UniProt P41143); experiment: GTP[γ]35S binding functional assay, membranes from HEK-293S cells expressing cloned human opioid receptors (HDELTA)
T3 construct: expressed in transfected cells; host or cells: human 293S (HEK-293S) cells, geneticin-selected
T3 sequence (P41143 whole entry): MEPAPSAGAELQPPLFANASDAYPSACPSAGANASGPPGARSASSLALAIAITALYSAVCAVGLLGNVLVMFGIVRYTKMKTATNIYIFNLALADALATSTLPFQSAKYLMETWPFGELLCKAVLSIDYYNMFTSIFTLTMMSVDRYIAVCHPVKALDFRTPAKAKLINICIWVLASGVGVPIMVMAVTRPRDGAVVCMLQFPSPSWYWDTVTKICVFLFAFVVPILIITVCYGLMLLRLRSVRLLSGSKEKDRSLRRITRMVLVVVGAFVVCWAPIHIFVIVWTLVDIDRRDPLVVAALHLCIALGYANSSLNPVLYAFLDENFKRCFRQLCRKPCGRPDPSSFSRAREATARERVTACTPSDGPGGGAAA
Experimental: A. Human 293S cells expressing cloned human μ, δ, and κ receptors and neomycin resistance were grown in suspension at 37° C. and 5% CO2 in shaker flasks containing calcium-free DMEM10% FBS, 5% BCS, 0.1% Pluronic F-68, and 600 μg/ml geneticin.
Cells were pelleted and resuspended in lysis buffer (50 mM Tris, pH 7.0, 2.5 mM EDTA, with PMSF added just prior to use to 0.1 mM from a 0.1 M stock in ethanol), incubated on ice for 15 min, then homogenized with a polytron for 30 sec. The suspension was spun at 1000 g (max) for 10 min at 4° C. The supernatant was saved on ice and the pellets resuspended and spun as before. The supernatants from both spins were combined and spun at 46,000 g (max) for 30 min. The pellets were resuspended in cold Tris buffer (50 mM Tris/Cl, pH 7.0) and spun again. The final pellets were resuspended in membrane buffer (50 mM Tris, […], pH 7.0). Aliquots (1 ml) in polypropylene tubes were frozen in dry ice/ethanol and stored at −70° C. until use. The protein concentrations were determined by a modified Lowry assay with sodium dodecyl sulfate.
as §2

T1 sequence (P32300 whole entry): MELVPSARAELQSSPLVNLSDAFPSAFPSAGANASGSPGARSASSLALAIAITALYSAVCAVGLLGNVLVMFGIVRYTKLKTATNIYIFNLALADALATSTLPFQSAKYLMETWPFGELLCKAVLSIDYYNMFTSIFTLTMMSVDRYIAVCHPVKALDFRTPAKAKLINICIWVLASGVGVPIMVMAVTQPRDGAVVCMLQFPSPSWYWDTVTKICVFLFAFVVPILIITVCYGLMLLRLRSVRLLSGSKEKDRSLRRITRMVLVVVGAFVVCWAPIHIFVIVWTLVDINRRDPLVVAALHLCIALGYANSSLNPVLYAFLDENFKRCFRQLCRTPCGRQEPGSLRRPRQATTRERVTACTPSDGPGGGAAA

Row | Structure (SMILES) | Emax [1] [%] | Emax [2] [%] | Emax (cloned human δ receptor) [%]
1 | CCN(CC)C(=O)c1ccc(C(=C2CCN(Cc3ccccc3)CC2)c2cccc3cccnc23)cc1 [Example 2, N,N-diethyl-4-(8-quinolinyl-N-benzyl-piperidin-4-ylidene-methyl)-benzamide] | 112 | 104 | 90.5
2 | CCN(CC)C(=O)c1ccc(C(=C2CCN(Cc3ccco3)CC2)c2cccc3cccnc23)cc1 [Example 3, N,N-diethyl-4-[[1-(2-furylmethyl)-4-piperidinylidene](8-quinoline)methyl]benzamide] | 146 | 130 | 103
3 | CCN(CC)C(=O)c1ccc(C(=C2CCN(Cc3ccsc3)CC2)c2cccc3cccnc23)cc1 [Example 6, N,N-diethyl-4-{8-quinolinyl[1-(3-thienylmethyl)-4-piperidinylidene]methyl}benzamide] | 140 | 135 | 123
4 | CCN(CC)C(=O)c1ccc(C(=C2CCN(Cc3cccs3)CC2)c2cccc3cccnc23)cc1 [Example 4, N,N-diethyl-4-{8-quinolinyl[1-(2-thienylmethyl)-4-piperidinylidene]methyl}benzamide] | 140 | 120 | 98.5
5 | CCN(CC)C(=O)c1ccc(C(=C2CCN(Cc3ccncc3)CC2)c2cccc3cccnc23)cc1 [Example 10] | 110 | 109 | 118
6 | CCN(CC)C(=O)c1ccc(C(=C2CCN(Cc3c[nH]cn3)CC2)c2cccc3cccnc23)cc1 [Example 9] | 123 | 112 | 100
7 | CCN(CC)C(=O)c1ccc(C(=C2CCN(Cc3ncc[nH]3)CC2)c2cccc3cccnc23)cc1 [Example 8] | 138 | 148 | 111
8 | CCN(CC)C(=O)c1ccc(C(=C2CCN(Cc3ccccn3)CC2)c2cccc3cccnc23)cc1 [Example 7] | 124 | 126 | 97.6
9 | CCN(CC)C(=O)c1ccc(C(=C2CCN(Cc3ccoc3)CC2)c2cccc3cccnc23)cc1 [Example 5, N,N-diethyl-4-[[1-(3-furylmethyl)-4-piperidinylidene](8-quinolinyl)methyl]benzamide] | 147 | 135 | 99
